Measured values published in patent US20100028360A1, “METHODS FOR THE MODULATION OF BRAIN PROGESTAGEN SIGNALING IN THE PREVENTION AND TREATMENT OF NEUROLOGICAL DISORDERS AND NEURODEGENERATIVE DISEASES” (priority 2008, published 2010).
“Also recorded” adds a separate entry of the source. No end group written: not given here.

Tests used:
[1] = tested on: Tg2576 mice carrying the Swedish AβPP mutation; settings: aged Tg2576 transgenic mice; cited from earlier work
rat hippocampal slices = assay: extracellular field responses in CA1 of isolated hippocampal slices; assay type: cell-based; settings: 50 nM
Protocol: FIG. 3. GnRH1 increases neuronal excitability in hippocampal slices from old rats. Typical traces from hippocampal slice cut transversely at 500 μm thickness from 37 day (A) and 19 month (B) old male rats. Orthodromic extracellular field responses were recorded in the cell body layer of the CA1. Responses were evoked by a bipolar electrode with a constant current stimuli (50 μs duration) delivered every 30 s by electrodes placed in the schaeffer collaterals. 50 nM GnRH1 was used. Mean values are shown in C., n=5 slices each for young rats and n=3 slices each for old rats. Slices from two young and two old animals were used. Superfusion of human GnRH evoked a 50% increase in the maximum amplitude of population spikes in hippocampal slices from old rats compared to controls (FIGS. 3B, C).

nestin = nestin immunoblot of hESC / EB-rosette structure lysates; assay type: cell-based, human
Protocol: (§1) FIG. 1. P4 differentiates hESC into neuroectoderm. (a) hESC were grown in TESR1 media—Li in the presence of E2 (10 nM), P4 (2 μM) or E2 (10 nM)+P4 (2 μM) for 6 d and cell proliferation measured using the trypan blue assay. Results are expressed as mean±SEM, n=3 (*p<0.05, **p<0.005 compared to 6 d control). (b) Equal amounts of protein from cell lysates of hESC treated for 9 d as described above were analyzed by immunoblot using a monoclonal antibody against nestin (clone 10C2; Chemicon, Calif., USA). (c) hESC were cultured for 4 d, enzymatically lifted and placed into EB media (containing serum) and rocked gently for an additional 4 d prior to being placed in one of two neural induction medias for an additional 11 days, where P4 was either absence or present. During this transition from EB to rosettes, colony structures treated with P4 also were treated with a PR antagonist (RU-486; 20 μM) or ER antagonist (ICI 182,780) for 11 d. At 19 d, morphological observation and molecular analysis were performed. […] (ii) hESC structure in the absence of P4. (iii) PR antagonist treated rosettes (RU-486, 20 μM). (iv) ER antagonist (ICI 182,780). (d) Equal amounts of protein from cell lysates of the above structures were analyzed by immunoblot with the monoclonal antibody against human nestin.

hESC [2] = assay: hESC cell proliferation, trypan blue assay; assay type: cell-based, human; settings: E2 10 nM, P4 2 μM or E2+P4, 6 d; compared to untreated control cells
Protocol: as §1

hESC [3] = assay: EB and neuroectodermal rosette/NPC formation from hESC, morphological observation; assay type: cell-based, human; settings: neural induction media with P4, antagonist for 11 d (RU-486 20 μM); observed at 19 d
Protocol: as §1

Compound: CCNC(=O)[C@@H]1CCCN1C(=O)[C@H](CCCNC(=N)N)NC(=O)[C@H](CC(C)C)NC(=O)[C@@H](CC(C)C)NC(=O)[C@H](Cc1ccc(O)cc1)NC(=O)[C@H](CO)NC(=O)[C@H](Cc1c[nH]c2ccccc12)NC(=O)[C@H](Cc1c[nH]cn1)NC(=O)[C@@H]1CCC(=O)N1 [leuprolide acetate]
- Aβ deposition [1]: halts Aβ deposition
- cognitive performance [1]: improves cognitive performance

Compound: GnRH1: human gonadotropin releasing hormone, superfused at 50 nM (QHWSYGLRPG; ends and bridges not checked; UniProt P01148 24-33, looked up)
- increase in the maximum amplitude of population spikes compared to controls (rat hippocampal slices; hippocampal slices from old (19 month old) rats): 50%
- increase in neuronal excitability compared to controls (rat hippocampal slices; hippocampal slices from young (37 day old) rats): 22%
- maximum amplitude of field responses, cell body layer of CA1 (rat hippocampal slices; old rats, n=3, control 2.54±0.18 mV, p=0.05): 3.99±0.84 mV
- maximum amplitude of field responses, cell body layer of CA1 (rat hippocampal slices; young rats, n=5, control 7.0±1.4 mV, p=0.548): 7.9±2.7 mV

Compound: CC(=O)[C@H]1CC[C@H]2[C@@H]3CCC4=CC(=O)CC[C@]4(C)[C@H]3CC[C@]12C [P4, pregn-4-ene-3,20-dione]
- nestin expression in hESC (nestin; hESC treated for 9 d, E2 10 nM, P4 2 μM, immunoblot): increased the expression of the neuroectodermal marker nestin; also recorded: induces nestin expression
- decrease in the rate of hESC proliferation (hESC [2]): 29%
- EB and neuroectodermal rosette/NPC formation (hESC [3]): a minimum of three rosette structures

Compound: C[C@]12CC[C@@H]3c4ccc(O)cc4CC[C@H]3[C@@H]1CC[C@@H]2O [E2, estradiol]
- decrease in the rate of hESC proliferation (hESC [2]): 16%

Compound: C[C@]12CC[C@@H]3c4ccc(O)cc4C[C@@H](CCCCCCCCC[S+]([O-])CCCC(F)(F)C(F)(F)F)[C@H]3[C@@H]1CC[C@@H]2O (stereo partly drawn) [ICI 182,780]
- nestin expression in antagonist treated structures (nestin; antagonist for 11 d (RU-486 20 μM), immunoblot at 19 d): absence of nestin
- EB and neuroectodermal rosette/NPC formation (hESC [3]): No rosettes were detected
